Test system: Eschericia coli (E. coli) strain ATCC25922
Assay: Standard microdilution assay, MIC against E. coli ATCC25922
Assay type: cell-based
Conditions: Escherichia coli; E. coli strain ATCC25922, standard microdilution assay; cutoff 16 micrograms/mL; read-out: MIC E. Coli
In short: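 Scoring as + or − used a 16 micrograms/mL cutoff on minimum inhibitory concentrations. These came from CLSI-standard microdilution, quality-controlled with reference strains tested in the same run.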

MIC [µg/mL] | SMILES
< 16 | C[C@H](N)CCCc1cc(SC(F)(F)F)cc(-c2cc3cn(-c4ccc([C@@H](CCN)NCCCNC(=N)N)cc4)c(=O)nc3[nH]2)c1 [Compound 7]
< 16 | C=CCN(CCCN[C@@H](C)c1ccc(-n2cc3cc(-c4cc(CCC[C@H](C)N)cc(Cl)c4F)[nH]c3nc2=O)cc1)C(=N)N [Compound 212]
< 16 | C[C@H](N)CCCc1cc(Cl)c(F)c(-c2cc3cn(-c4ccc(CNCC[C@@H](C)N)cc4)c(=O)nc3[nH]2)c1 [Compound 187]
< 16 | CCc1c(F)c(CCC[C@H](C)N)cc(-c2cc3cn(-c4ccc([C@H](C)NCCCN)cc4)c(=O)nc3[nH]2)c1F [Compound 217]
< 16 | C[C@H](N)CCCc1cc(Cl)c(F)c(-c2cc3cn(-c4ccc([C@@H](NCCCNC(=N)N)c5ccc(S(C)(=O)=O)cc5)cc4)c(=O)nc3[nH]2)c1 [Compound 39]
< 16 | C[C@H](N)CCCc1cc(SC(F)(F)F)cc(-c2cc3cn(-c4ccc([C@H](CCCO)NCCCNC(=N)N)cc4)c(=O)nc3[nH]2)c1 [Compound 100]
< 16 | C[C@H](N)CCCc1cc(-c2cc3cn(-c4ccc([C@@H](CO)NCCCNC(=N)N)cc4)c(=O)nc3[nH]2)cc(C(F)(F)F)c1 [Compound 51]
< 16 | C=C[C@@H](CCNCc1ccc(-n2cc3cc(-c4cc(CCC[C@H](C)N)cc(Cl)c4F)[nH]c3nc2=O)cc1)NC(=N)N [Compound 177]
< 16 | C[C@H](N)CCCc1cc(Cl)c(F)c(-c2cc3cn(-c4ccc([C@H](CCCO)NCCCNC(=N)N)cc4)c(=O)nc3[nH]2)c1 [Compound 99]
< 16 | C[C@H](N)CCCc1cc(OC(F)(F)F)c(F)c(-c2cc3cn(-c4ccc([C@H](N)C(=O)NCCNC(=N)N)cc4)c(=O)nc3[nH]2)c1 [Compound 255]
< 16 | COC[C@H](N)CCCc1cc(Cl)c(F)c(-c2cc3cn(-c4ccc([C@H](C)NCCCNC(=N)N)cc4)c(=O)nc3[nH]2)c1 [Compound 171]
< 16 | CC(=O)Oc1ccccc1C(=O)OC[C@H](N)CCCc1cc(Cl)c(F)c(-c2cc3cn(-c4ccc([C@H](C)NCCCNC(=N)N)cc4)c(=O)nc3[nH]2)c1 [Compound 316]
< 16 | CC[C@@H](CCNCc1ccc(-n2cc3cc(-c4cc(CCC[C@H](C)N)cc(Cl)c4F)[nH]c3nc2=O)cc1)NC(=N)N [Compound 183]
< 16 | CC[C@H](NCCCNC(=N)N)c1ccc(-n2cc3cc(-c4cc(CCC[C@H](C)N)cc(OC(F)(F)F)c4F)[nH]c3nc2=O)cc1 [Compound 227]
< 16 | CCOC(=O)N[C@@H](C)CCCc1cc(Cl)c(F)c(-c2cc3cn(-c4ccc([C@H](C)NCCCNC(=N)N)cc4)c(=O)nc3[nH]2)c1 [Compound 71]
< 16 | C[C@H](N)CCCc1cc(Cl)c(F)c(-c2cc3cn(-c4ccc(CNCC[C@@H](N)CN)cc4)c(=O)nc3[nH]2)c1 [Compound 182]
< 16 | C[C@H](N)CCCc1cc(Cl)c(F)c(-c2cc3cn(-c4ccc(CNCC[C@H](CCO)NC(=N)N)cc4)c(=O)nc3[nH]2)c1 [Compound 185]
< 16 | C[C@H](N)CC[C@@H](O)c1cc(OC(F)(F)F)cc(-c2cc3cn(-c4ccc([C@H](C)NCCCNC(=N)N)cc4)c(=O)nc3[nH]2)c1 [Compound 34]
< 16 | C[C@H](N)CCCc1cc(Cl)c(F)c(-c2cc3cn(-c4ccc([C@@H]5CC[C@@H](CCNC(=N)N)N5)cc4)c(=O)nc3[nH]2)c1 [Compound 285]

MIC [µg/mL] | SMILES
< 16 | C=CC[C@@H](CCN[C@@H](C)c1ccc(-n2cc3cc(-c4cc(CCC[C@H](C)N)cc(OC(F)(F)F)c4F)[nH]c3nc2=O)cc1)NC(=N)N [Compound 261]
< 16 | CC(C)[C@@H](N)CCNCc1ccc(-n2cc3cc(-c4cc(CCC[C@H](C)N)cc(Cl)c4F)[nH]c3nc2=O)cc1 [Compound 156]
< 16 | C/C=C/C[C@H](CCN[C@@H](C)c1ccc(-n2cc3cc(-c4cc(CCC[C@H](C)N)cc(OC(F)(F)F)c4F)[nH]c3nc2=O)cc1)NC(=N)N [Compound 292]
< 16 | C[C@H](N)CC[C@@H](O)c1cc(SC(F)(F)F)cc(-c2cc3cn(-c4ccc([C@H](C)NCCCNC(=N)N)cc4)c(=O)nc3[nH]2)c1 [Compound 65]
< 16 | CSC[C@@H](CCN[C@@H](C)c1ccc(-n2cc3cc(-c4cc(CCC[C@H](C)N)cc(OC(F)(F)F)c4F)[nH]c3nc2=O)cc1)NC(=N)N [Compound 288]
< 16 | C[C@H](N)CCCc1cc(Cl)c(F)c(-c2cc3cn(-c4ccc([C@H](Cc5c[nH]nn5)NCCCNC(=N)N)cc4)c(=O)nc3[nH]2)c1 [Compound 46]
< 16 | C[C@H](NCCCNC(=N)N)c1ccc(-n2cc3cc(-c4cc(CCC[C@@H](N)CO)cc(C(F)(F)F)c4)[nH]c3nc2=O)cc1 [Compound 242]
< 16 | C=CC[C@H](N)CCNCc1ccc(-n2cc3cc(-c4cc(CCC[C@H](C)N)cc(Cl)c4F)[nH]c3nc2=O)cc1 [Compound 201]
> 16 | C[C@H](N)CCCc1cc(SC(F)(F)F)cc(-c2cc3cn(-c4ccc([C@@H](N)CCNc5nccs5)cc4)c(=O)nc3[nH]2)c1 [Compound 157]
< 16 | C=C[C@@H](N)CCNCc1ccc(-n2cc3cc(-c4cc(CCC[C@H](C)N)cc(Cl)c4F)[nH]c3nc2=O)cc1 [Compound 173]
< 16 | C[C@H](N)CCCc1cc(Cl)c(F)c(-c2cc3cn(-c4ccc(CN[C@H](C)CCN)cc4)c(=O)nc3[nH]2)c1 [Compound 210]
< 16 | C[C@H](N)CCCc1cc(Cl)c(F)c(-c2cc3cn(-c4ccc(CNCC[C@@H](NC(=N)N)C5CC5)cc4)c(=O)nc3[nH]2)c1 [Compound 174]
< 16 | Cc1cc(F)c(-c2cc3cn(-c4ccc([C@H](C)NCCCNC(=N)N)cc4)c(=O)nc3[nH]2)cc1CCC[C@H](C)N [Compound 33]
> 16 | COc1ccc([C@@H](c2ccc(SC)cc2)c2ccc(-n3cc4cc(-c5cc(CCC[C@H](C)N)cc(SC(F)(F)F)c5)[nH]c4nc3=O)cc2)cc1 [Compound 9]
< 16 | C=CCNCCCN[C@@H](C)c1ccc(-n2cc3cc(-c4cc(CCC[C@H](C)N)cc(Cl)c4F)[nH]c3nc2=O)cc1 [Compound 213]
< 16 | C=C[C@H](CCN[C@@H](C)c1ccc(-n2cc3cc(-c4cc(CCC[C@H](C)N)cc(OC(F)(F)F)c4F)[nH]c3nc2=O)cc1)NC(=N)N [Compound 237]
< 16 | C[C@H](N)CCCc1cc(Cl)c(F)c(-c2cc3cn(-c4ccc([C@H](C)NCCCN(C)C(=N)N)cc4)c(=O)nc3[nH]2)c1 [Compound 205]
< 16 | C[C@H](NCCCNC(=N)N)c1ccc(-n2cc3cc(-c4cc(CCC[C@H](C)NC(=N)N)cc(Cl)c4F)[nH]c3nc2=O)cc1 [Compound 309]
< 16 | C=CC[C@@H](CCN[C@@H](C)c1ccc(-n2cc3cc(-c4cc(CCC[C@H](C)N)cc(Cl)c4F)[nH]c3nc2=O)cc1)NC(=N)N [Compound 252]

MIC [µg/mL] | SMILES
< 16 | COC[C@H](N)CCNCc1ccc(-n2cc3cc(-c4cc(CCC[C@H](C)N)cc(Cl)c4F)[nH]c3nc2=O)cc1 [Compound 178]
< 16 | C[C@H](N)CCCc1cc(SC(F)(F)F)cc(-c2cc3cn(-c4ccc([C@@H](CF)NCCCNC(=N)N)cc4)c(=O)nc3[nH]2)c1 [Compound 96]
< 16 | C[C@H](N)CCCc1cc(Cl)c(F)c(-c2cc3cn(-c4ccc([C@H](C)NCC[C@H](CCCO)NC(=N)N)cc4)c(=O)nc3[nH]2)c1 [Compound 275]
< 16 | C[C@H](N)CCCc1cc(OC(F)(F)F)c(F)c(-c2cc3cn(-c4ccc([C@H](C)NCC[C@H](CO)NC(=N)N)cc4)c(=O)nc3[nH]2)c1 [Compound 263]
< 16 | COc1ccc(Cn2cc(C[C@H](NCCCNC(=N)N)c3ccc(-n4cc5cc(-c6cc(CCC[C@H](C)N)cc(Cl)c6F)[nH]c5nc4=O)cc3)nn2)cc1 [Compound 41]
< 16 | C[C@H](N)CCCc1cc(Cl)c(F)c(-c2cc3cn(-c4ccc([C@H](C)NCC[C@@H](Cn5cccn5)NC(=N)N)cc4)c(=O)nc3[nH]2)c1 [Compound 279]
< 16 | C[C@H](N)CCCc1cc(SC(F)(F)F)cc(-c2cc3cn(-c4ccc([C@H](CCF)NCCCNC(=N)N)cc4)c(=O)nc3[nH]2)c1 [Compound 75]
< 16 | C[C@H](N)CCCc1cc(Cl)c(F)c(-c2cc3cn(-c4ccc([C@H](C)NCC[C@@H](CCCN)NC(=N)N)cc4)c(=O)nc3[nH]2)c1 [Compound 281]
< 16 | C[C@H](NCCCNC(=N)N)c1ccc(-n2cc3cc(-c4cc(SC(F)(F)F)cc([C@H](O)CCC(N)C(O)CO)c4)[nH]c3nc2=O)cc1 (some centres unmarked) [Compound 134]
< 16 | C[C@H](N)CCCc1cc(Cl)c(F)c(-c2cc3cn(-c4ccc(CNCC[C@@H](CO)NC(=N)N)cc4)c(=O)nc3[nH]2)c1 [Compound 191]
< 16 | COc1ccc(Cn2cc(C[C@H](NCCCNC(=N)N)c3ccc(-n4cc5cc(-c6cc(CCC[C@H](C)N)cc(C(F)(F)F)c6)[nH]c5nc4=O)cc3)nn2)cc1 [Compound 42]
< 16 | C[C@H](N)CCCc1cc(Cl)c(F)c(-c2cc3cn(-c4ccc(CNCC[C@H](CO)NC(=N)N)cc4)c(=O)nc3[nH]2)c1 [Compound 181]
< 16 | C=CCC[C@H](NCCCNC(=N)N)c1ccc(-n2cc3cc(-c4cc(CCC[C@H](C)N)cc(SC(F)(F)F)c4)[nH]c3nc2=O)cc1 [Compound 82]
> 16 | CCOC(=N)CNCc1ccc(-n2cc3cc(-c4cc(CCC[C@H](C)N)cc(Cl)c4F)[nH]c3nc2=O)cc1 [Compound 166]
< 16 | C[C@H](N)CCCc1cc(-c2cc3cn(-c4ccc([C@H](C)NCC[C@@H](C)NC(=N)N)cc4)c(=O)nc3[nH]2)cc(C(F)(F)F)c1 [Compound 200]
< 16 | C=C[C@H](N)CC[C@H](O)c1cc(SC(F)(F)F)cc(-c2cc3cn(-c4ccc([C@H](C)NCCCNC(=N)N)cc4)c(=O)nc3[nH]2)c1 [Compound 91]
< 16 | C[C@H](N)CCCc1cc(Cl)c(F)c(-c2cc3cn(-c4ccc([C@H](C)NCC[C@H](CCC#N)NC(=N)N)cc4)c(=O)nc3[nH]2)c1 [Compound 314]
< 16 | C[C@H](N)CCCc1cc(Cl)c(F)c(-c2cc3cn(-c4ccc([C@H](C)NCC[C@@H](Cc5c[nH]nn5)NC(=N)N)cc4)c(=O)nc3[nH]2)c1 [Compound 266]
